The source of these data is PMC10582325 (Frontiers in Pharmacology, 2023).

Several values for one entry are separate records, joined by “and”; a condition that tells them apart may be missing. Equal entries are not always repeated. Where two headings read alike, the source gives them in different places.

One data set deals with T1, rCYP3A5 (Homo sapiens, UniProt P20815).
T1 construct: purchased BD Gentest (Woburn, MA, United States)
Nature of the data set: Reaction phenotyping of BDQ in recombinant P450 enzymes (rCYPs method). The conditions noted are these: BDQ 1 μM, CYP3A5. It is filed as in vitro ADME.

A further data set addresses T2, rCYP2C8 (Homo sapiens, UniProt P10632).
T2 construct: purchased BD Gentest (Woburn, MA, United States)
T2 sequence (P10632 1-490): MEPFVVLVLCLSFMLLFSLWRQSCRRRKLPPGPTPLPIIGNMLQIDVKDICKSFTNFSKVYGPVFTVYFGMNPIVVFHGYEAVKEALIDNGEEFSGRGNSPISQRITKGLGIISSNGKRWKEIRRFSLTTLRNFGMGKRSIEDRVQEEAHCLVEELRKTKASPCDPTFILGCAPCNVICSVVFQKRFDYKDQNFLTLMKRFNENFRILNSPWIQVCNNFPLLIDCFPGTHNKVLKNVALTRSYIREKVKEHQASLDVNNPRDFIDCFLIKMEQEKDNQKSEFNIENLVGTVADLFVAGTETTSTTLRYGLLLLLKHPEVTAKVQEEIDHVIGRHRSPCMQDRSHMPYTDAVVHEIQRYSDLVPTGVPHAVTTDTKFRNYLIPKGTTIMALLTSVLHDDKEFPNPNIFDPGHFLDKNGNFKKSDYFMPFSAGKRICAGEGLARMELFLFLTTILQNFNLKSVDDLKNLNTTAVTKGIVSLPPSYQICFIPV
The description is as above. The conditions noted are these: BDQ 1 μM, CYP2C8. It is filed as in vitro ADME.

The next data set has as its target T3, rCYP2C19 (Homo sapiens, UniProt P33261).
T3 construct: purchased BD Gentest (Woburn, MA, United States)
The data set is described as above. It is filed as in vitro ADME. The conditions noted are these: BDQ 1 μM, CYP2C19.

The target in a further data set is T4, rCYP3A4 (Homo sapiens, UniProt P08684).
T4 construct: purchased BD Gentest (Woburn, MA, United States)
T4 sequence (P08684 whole entry): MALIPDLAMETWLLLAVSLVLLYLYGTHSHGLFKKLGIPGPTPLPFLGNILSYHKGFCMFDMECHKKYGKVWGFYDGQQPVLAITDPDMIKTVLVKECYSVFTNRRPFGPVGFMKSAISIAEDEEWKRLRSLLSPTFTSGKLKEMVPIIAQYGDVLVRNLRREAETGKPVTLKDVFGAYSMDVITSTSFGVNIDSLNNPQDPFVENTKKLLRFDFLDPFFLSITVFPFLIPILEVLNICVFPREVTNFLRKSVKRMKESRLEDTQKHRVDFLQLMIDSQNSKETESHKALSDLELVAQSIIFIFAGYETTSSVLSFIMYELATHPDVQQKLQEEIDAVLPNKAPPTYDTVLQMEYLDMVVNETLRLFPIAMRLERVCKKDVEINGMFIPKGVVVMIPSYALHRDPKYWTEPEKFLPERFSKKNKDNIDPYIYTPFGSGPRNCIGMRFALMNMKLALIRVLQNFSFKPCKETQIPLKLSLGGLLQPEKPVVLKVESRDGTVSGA
The data set is described as above. It is filed as in vitro ADME. The conditions noted are these: BDQ 1 μM, CYP3A4.

The conditions of data set [1]: mouse, in vivo.
Data set [2] can be described thus: Plasma concentration 3 h post dose in murine model of tuberculosis. It is filed as in vivo, BALB/c mice infected with M. tuberculosis H37Rv. The conditions noted are these: TB model; for concentration at 3 h: female, BALB/c, mouse, plasma, read-out: Mean plasma concentration at three hours after oral administration; for plasma concentration after coadministration as percent of BDQ alone: 3 h post dose, p < 0.05.

For data set [3] the following is noted: male, BALB/c, mouse, in vivo.
The next data set can be described thus: in vivo. The conditions noted are these: male, BALB/c, mouse, tissue-to-plasma ratio (Kp).
The next data set deals with T5, rCYP2A6 (Homo sapiens, UniProt P11509).
T5 construct: purchased BD Gentest (Woburn, MA, United States)
T5 sequence (P11509 1-494): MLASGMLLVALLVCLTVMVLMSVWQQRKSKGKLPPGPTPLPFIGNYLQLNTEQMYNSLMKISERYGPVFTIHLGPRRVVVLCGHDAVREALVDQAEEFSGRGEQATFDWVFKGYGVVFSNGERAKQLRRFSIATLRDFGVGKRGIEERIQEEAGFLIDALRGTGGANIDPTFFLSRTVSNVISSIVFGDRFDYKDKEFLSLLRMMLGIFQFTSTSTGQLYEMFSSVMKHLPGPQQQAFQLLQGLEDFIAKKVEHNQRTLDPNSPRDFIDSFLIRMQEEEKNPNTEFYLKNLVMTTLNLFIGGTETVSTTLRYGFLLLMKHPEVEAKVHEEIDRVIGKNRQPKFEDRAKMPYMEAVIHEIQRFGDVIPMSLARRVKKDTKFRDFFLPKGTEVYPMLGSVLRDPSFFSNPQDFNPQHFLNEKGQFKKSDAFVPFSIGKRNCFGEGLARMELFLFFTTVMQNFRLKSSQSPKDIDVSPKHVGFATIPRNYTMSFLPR
Nature of the data set: Reaction phenotyping of BDQ in recombinant P450 enzymes (rCYPs method). It is filed as in vitro ADME. The conditions noted are these: BDQ 1 μM, M2 formation, CYP2A6.

A short description of data set [4]: Steady-state plasma pharmacokinetics of BDQ, M2 and TBI-166 in BALB/c mice. The conditions noted are these: for AUC(0-t): Plasma; for t 1/2: after last dose.
The nature of data set [5]: Stability of BDQ, M2 and TBI-166 in mice plasma (LC-MS/MS validation).
A short description of data set [6]: Lung and spleen tissue exposure in BALB/c mice.
The subject of the next data set is phospholipidosis. The conditions noted are these: cited from earlier work.
For a further data set, the system named is CYP3A4/5. The conditions noted are these: cited from earlier work.
Setting [7] is: TBI-166 group (20 mg/kg), W4, LLOQ 5, 5, 15 ng/mL for BDQ, TBI-166, M2.
Setting [8] is: TBI-166 group (20 mg/kg), W8, LLOQ 5, 5, 15 ng/mL for BDQ, TBI-166, M2.

T1 sequence (P20815 whole entry): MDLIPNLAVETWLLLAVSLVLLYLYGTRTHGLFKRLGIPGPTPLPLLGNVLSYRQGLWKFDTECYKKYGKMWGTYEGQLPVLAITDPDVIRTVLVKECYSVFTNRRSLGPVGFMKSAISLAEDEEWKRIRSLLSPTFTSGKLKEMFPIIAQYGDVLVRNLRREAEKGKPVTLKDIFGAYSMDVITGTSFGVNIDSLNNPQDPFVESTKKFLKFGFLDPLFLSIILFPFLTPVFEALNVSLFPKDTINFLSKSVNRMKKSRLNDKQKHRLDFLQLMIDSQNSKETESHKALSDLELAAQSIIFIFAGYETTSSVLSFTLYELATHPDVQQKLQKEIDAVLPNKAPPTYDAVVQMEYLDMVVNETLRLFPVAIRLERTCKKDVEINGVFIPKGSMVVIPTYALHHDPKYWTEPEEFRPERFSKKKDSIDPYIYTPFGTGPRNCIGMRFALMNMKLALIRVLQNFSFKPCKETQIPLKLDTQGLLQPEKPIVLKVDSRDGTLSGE
T3 sequence (P33261 whole entry): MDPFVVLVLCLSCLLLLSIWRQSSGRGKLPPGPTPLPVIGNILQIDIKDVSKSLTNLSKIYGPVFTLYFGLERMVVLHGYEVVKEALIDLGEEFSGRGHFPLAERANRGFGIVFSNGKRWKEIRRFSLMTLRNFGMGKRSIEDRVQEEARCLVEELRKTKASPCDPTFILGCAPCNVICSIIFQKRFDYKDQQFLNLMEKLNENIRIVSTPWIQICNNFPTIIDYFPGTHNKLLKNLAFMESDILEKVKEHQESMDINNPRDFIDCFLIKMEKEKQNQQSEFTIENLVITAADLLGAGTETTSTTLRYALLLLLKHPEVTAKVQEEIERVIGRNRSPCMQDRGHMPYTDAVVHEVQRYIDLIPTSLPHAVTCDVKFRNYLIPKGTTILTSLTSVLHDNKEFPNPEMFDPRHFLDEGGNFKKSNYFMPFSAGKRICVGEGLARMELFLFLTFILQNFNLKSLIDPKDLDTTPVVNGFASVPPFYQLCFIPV

For orientation: Kp means tissue or fluid exposure divided by exposure in the circulation. As for `COc1nc2ccc(Br)cc2cc1[C@@H](c1ccccc1)[C@@](O)(CCN(C)C)c1cccc2ccccc12` [BDQ, Bedaquiline], the “f m (fraction of drug metabolism by individual CYP enzyme)” value was determined as 3.5% on rCYP3A5; 8.8% on rCYP2C8; 5.7% at rCYP2C19; 73.1% on rCYP3A4; 3.1% on rCYP2A6. In data set [1], the “exposure (AUC0-t) with vs without coadministration” value is “similar”. The “Mean plasma concentration at three hours after oral administration” value in data set [2] (setting [7]) and in [2] (setting [8]) was “<LLOQ” each time. The concentration at 3 h in data set [2] (oral, 25 mg/kg, BDQ group (25 mg/kg), W4, LLOQ 5, 5, 15 ng/mL for BDQ, TBI-166, M2) is 657 ± 142 ng/mL; in [2] (oral, 25 mg/kg, BDQ group (25 mg/kg), W8, LLOQ 5, 5, 15 ng/mL for BDQ, TBI-166, M2), 920 ± 126 ng/mL; in data set [2] (po, BDQ + TBI-166 group, W4) it was 647 ± 199 ng/mL; in data set [2] (po, BDQ + TBI-166 group, W8), 889 ± 171 ng/mL. Further, in data set [3], the “AUC(0-last) as percent of single-drug group” value turned out to be 100%. Besides, the “MRT(0-t)” value in [3] (po, 25 mg/kg) is reported as 52.80 h. In addition, the Kp in the data set “in vivo” was 19.7.

Turning to `CNCC[C@@](O)(c1cccc2ccccc12)[C@H](c1ccccc1)c1cc2cc(Br)ccc2nc1OC` [M2, N-desmethyl-bedaquiline], the “mean plasma concentration in BDQ + TBI-166 group as percent of BDQ group” value in [4] (1 h post dose) amounted to 85%; in [4] (3 h post dose), 75%. The mean plasma concentration is on record as 1,438 ng/mL in [4] (1 h post dose (so in the source), BDQ group); 1,235.36 ng/mL in data set [4] (1 h post dose, BDQ + TBI-166 group); 1,084.84 ng/mL in data set [4] (3 h post dose, BDQ + TBI-166 group); 1,438.31 ng/mL in data set [4] (3 h post dose, BDQ group). In addition, in [4] (BDQ + TBI-166 group vs BDQ group), the “area under the curve ratio (AUCR)” value came to 0.66. For the same compound, the “AUC(0-t)” value stood at 76250 ± 8100 ng·h/mL in data set [4] (BDQ + TBI-166 group (Table S4)); 115730 ± 25440 ng·h/mL in [4] (BDQ group (Table S4)); 4940.02 ± 756.58 µg·h/g in data set [6] (Lung, BDQ + TBI-166 group); 4827.39 ± 818.42 µg·h/g in [6] (Lung, BDQ group); 6358.44 ± 1054.47 µg·h/g in [6] (Spleen, BDQ + TBI-166 group); 4703.39 ± 1052.83 µg·h/g in data set [6] (Spleen, BDQ group). Besides, the “AUC(0-last)” value in data set [4] (plasma, BDQ + TBI-166 group) is 76,310 ± 5,901 h·ng/mL; in [4] (plasma, BDQ group (BDQ alone)), 115,704 ± 19,589 h·ng/mL. Besides, the “AUC(0-last) as percent of single-drug group” value in [4] (plasma, BDQ + TBI-166 group) was determined as 66%; in [4] (plasma, BDQ group (reference)), 100%. For the same compound, the “AUC(0-∞)” value in data set [4] (plasma, BDQ + TBI-166 group) is given as 89,814 h·ng/mL; in data set [4] (plasma, BDQ group (BDQ alone)), 134,430 h·ng/mL. In addition, the C max in [4] (plasma, BDQ + TBI-166 group) is 1,235.36 ± 22.74 ng/mL; in data set [4] (plasma, BDQ group (BDQ alone)), 1,438.31 ± 127.21 ng/mL. The “MRT(0-t)” value in data set [4] (plasma, BDQ + TBI-166 group) amounted to 51.71 h; in data set [4] (plasma, BDQ group (BDQ alone)) it was 56.46 h. The T max in [4] (plasma, BDQ + TBI-166 group) is listed as 1 h; in data set [4] (plasma, BDQ group (BDQ alone)), 3 h. Besides, the “t 1/2” value is recorded as 57.47 h in data set [4] (plasma, BDQ + TBI-166 group (BDQ 25 mg/kg + TBI-166 20 mg/kg, gavage QD 21 days)) and 64.27 h in data set [4] (plasma, BDQ group (BDQ 25 mg/kg alone, gavage QD 21 days)). In data set [4] (plasma, vs BDQ group), the “decrease of AUC0-last after coadministration of BDQ with TBI-166” value is reported as 34%. Also, the “Stability in mice plasma, RE” value stood at 5.42% in [5] (4℃ for 24 h, 45 ng/mL); 13.08% in data set [5] (4℃ for 24 h, 225 ng/mL); 9.97% in [5] (4℃ for 24 h, 2250 ng/mL); 15.73% in data set [5] (-40℃ for 7 d, 45 ng/mL); 2.77% in data set [5] (-40℃ for 7 d, 225 ng/mL); 9.33% in [5] (-40℃ for 7 d, 2250 ng/mL). In addition, the “Stability in mice plasma, RE” value is listed as 12.58% in data set [5] (Freeze-thaw three cycles, 45 ng/mL); 17.75% in data set [5] (Freeze-thaw three cycles, 225 ng/mL); 6.90% in [5] (Freeze-thaw three cycles, 2250 ng/mL); 14.04% in data set [5] (In auto-sample for 24 h, 45 ng/mL); 17.58% in data set [5] (In auto-sample for 24 h, 225 ng/mL); 4.83% in data set [5] (In auto-sample for 24 h, 2250 ng/mL). Further, the “Stability in mice plasma, RE” value in [5] (Room temperature for 24 h, 45 ng/mL) turned out to be 9.38%; in data set [5] (Room temperature for 24 h, 225 ng/mL), 17.30%; in [5] (Room temperature for 24 h, 2250 ng/mL), 4.03%. The entries for the “plasma concentration after coadministration as percent of BDQ alone” value in [2] (4 weeks) and in data set [2] (8 weeks) were 87% and 79%, respectively. Besides, the “Mean plasma concentration at three hours after oral administration” value in data set [2] (BDQ + TBI-166 group, W4) is 970 ng/mL and 969.68 ± 206.81 ng/mL; in data set [2] (BDQ + TBI-166 group, W8) it was 948 ng/mL and 948.31 ± 60.21 ng/mL; in [2] (setting [7]), “<LLOQ”; in data set [2] (setting [8]), “<LLOQ”. In addition, the “tissue-to-plasma ratio (Kp)” value was determined as 64.79 in data set [6] (Lung, BDQ + TBI-166 group); 41.72 in data set [6] (Lung, BDQ group); 83.39 in [6] (Spleen, BDQ + TBI-166 group); 40.65 in data set [6] (Spleen, BDQ group). Also, in [6] (lungs), the “exposure (AUC0-t) with vs without coadministration” value is recorded as “similar”. In [6] (spleens), the “increase of exposure (AUC0-t) after coadministration of BDQ with TBI-166” value is reported as 1.5 fold. Also, the “higher cardiotoxicity by inducing phospholipidosis compared with BDQ” value in the data set on phospholipidosis is given as 50 times.

For the compound `CC(C)/N=c1\cc2n(-c3ccc(Cl)cc3)c3ccccc3nc-2cc1Nc1ccc(Cl)cc1` [clofazimine], the CYP3A4/5 inhibitor strength result with CYP3A4/5 is reported as “moderate-to-strong”.
